We go through two molecules from US20060223846A1, “Aza-bridged-bicyclic amino acid derivatives as alpha4 integrin antagonists” (priority 2005, published 2006).

Read-outs that look alike come from different tables or passages of the source.

Test [1] deals with heterotopic heart allograft. As to conditions: hyperlipidemic rabbit; cited from earlier work.
Test [2] addresses T1, α4β1 (Homo sapiens, UniProt P05556+P13612). As to conditions: literature (Tamraz et al.); cited from earlier work.
The test system of test [3] is oxazolone-induced contact hypersensitivity. As to conditions: 6 mg/kg, sc; mouse; cited from earlier work.
For test [4], the target named is T1, α4β1. The test is described as follows: Ramos Cell Adhesion Assay (α4β1 Mediated Adhesion/VCAM-1). In kind it is cell-based. Also on record: Ramos cells, (50 μL at 2×10^6/mL) labeled with 5 μM Calcein AM; endogenous in cells; host or cells: Ramos cells. The protocol: (§1) Ramos Cell Adhesion Assay α4β1 Mediated Adhesion/VCAM-1) Immulon 9.6 well plates (Dynex) were coated with 100 μL recombinant hVCAM-1 at 4.0 μg/mL in 0.05 M NaCO3 buffer pH 9.0 overnight at 4° C. (R&D Systems). Plates were washed 3 times in PBS with 1% BSA and blocked for 1 h @ room temperature in this buffer. PBS was removed and compounds to be tested (50 μL) were added at 2× concentration. Ramos cells, (50 μL at 2×10^6/mL) labeled with 5 μM Calcein AM (Molecular Probes) for 1 h at 37° C., were added to each well and allowed to adhere for 1 h at room temperature. Plates were washed 3× in PBS+1% BSA and cells were lysed for 15 minutes in 100 μL of 1 M Tris pH 8.0 with 1% SDS. The plate was read at 485 nm excitation and 530 nm emission.

Test [5] concerns circulating white blood cells (leukocytes). Nature of the test: Leukocytosis Procedure. The format is in vivo, Balb/c mice. As to conditions: bled 1-1.5 hours after administration. The text has this: Background: Leukocytosis is the increase in circulating white blood cells (leukocytes). Luekocytosis can be caused by preventing leukocyte binding to integrin counter-receptor adhesion molecules expressed on high endothelial venules. This cell adhesion occurs between immunoglobulin superfamily molecules and integrins. Relevant examples of these paired interactions include […] Adhesion Molecule-1 and αLβ2 integrin, Vascular Cell Adhesion Molecule-1 and α4β1 integrin, and Mucosal Addressin Cell Adhesion Molecule-1 and α4β7 integrin, respectively.
In this model, a compound that antagonizes these leukocyte-endothelial interactions will cause an increase in circulating leukocytes, defined as leukocytosis, as measured at 1-1.5 hours post-administration. This leukocytosis is indicative that normal lymphocyte or leukocyte emigration from the peripheral circulation was prevented. Similar emigration of cells out of the circulation into inflamed tissues is responsible for the progression and maintenance of the inflammatory state. Leukocytosis is an indication that lymphocyte and leukocyte extravasation is prevented, and is predictive of general anti-inflammatory activity.
1 week prior to being tested, 7-10 week old female Balb/c mice, n=8 per group, were bled and randomized according to leukocyte counts. One week later, the mice were administered a test compound orally or subcutaneously and then bled 1-1.5 hours after drug administration, approximately one hour after the peak blood concentration of the compound had occurred. Whole blood, 250-350 microliters, was collected from each mouse into potassium-EDTA serum collection tubes (Becton-Dickenson) and mixed to prevent clotting.
Cell counts and differential counts on the whole blood preparation were performed using an Advia 120 Hematology System (Bayer Diagnostics). Cell counts as total leukocytes and as total lympohcytes were made and compared to counts made from mice dosed with vehicle only. Data were reported as percent of vehicle control for lymphocyte counts and total leukocyte counts. Statistical analyses were performed using ANOVA with Dunnet's multiple comparison test

Test [6] deals with T2, human α4β7 (Homo sapiens, UniProt P13612+P26010).
T2 construct: expressed in transfected cells
T2 sequence (P13612 34-1032): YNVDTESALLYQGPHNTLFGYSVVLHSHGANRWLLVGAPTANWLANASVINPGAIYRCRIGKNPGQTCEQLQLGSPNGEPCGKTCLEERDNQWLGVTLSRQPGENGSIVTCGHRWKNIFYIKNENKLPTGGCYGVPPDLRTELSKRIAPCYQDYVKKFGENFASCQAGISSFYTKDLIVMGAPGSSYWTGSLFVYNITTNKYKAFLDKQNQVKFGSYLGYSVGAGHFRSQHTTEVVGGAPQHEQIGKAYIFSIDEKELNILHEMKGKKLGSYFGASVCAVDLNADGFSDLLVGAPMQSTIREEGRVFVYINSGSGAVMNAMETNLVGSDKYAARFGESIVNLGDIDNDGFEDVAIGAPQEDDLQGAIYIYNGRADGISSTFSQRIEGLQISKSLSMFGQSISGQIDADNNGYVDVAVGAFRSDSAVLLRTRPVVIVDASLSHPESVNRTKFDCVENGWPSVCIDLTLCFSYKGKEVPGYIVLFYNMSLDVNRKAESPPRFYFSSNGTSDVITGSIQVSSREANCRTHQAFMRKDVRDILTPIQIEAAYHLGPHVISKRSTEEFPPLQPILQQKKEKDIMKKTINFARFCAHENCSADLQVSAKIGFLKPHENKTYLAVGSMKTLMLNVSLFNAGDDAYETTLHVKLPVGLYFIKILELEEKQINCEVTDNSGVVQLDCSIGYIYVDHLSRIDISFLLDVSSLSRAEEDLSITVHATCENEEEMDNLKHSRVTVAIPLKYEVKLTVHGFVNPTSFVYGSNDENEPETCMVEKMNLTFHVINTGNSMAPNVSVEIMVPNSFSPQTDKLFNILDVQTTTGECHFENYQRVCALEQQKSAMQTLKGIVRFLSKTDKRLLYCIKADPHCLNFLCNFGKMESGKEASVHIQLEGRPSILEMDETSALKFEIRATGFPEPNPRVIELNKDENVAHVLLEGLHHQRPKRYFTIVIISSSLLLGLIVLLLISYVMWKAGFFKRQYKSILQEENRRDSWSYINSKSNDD
T2 sequence (P26010 20-798): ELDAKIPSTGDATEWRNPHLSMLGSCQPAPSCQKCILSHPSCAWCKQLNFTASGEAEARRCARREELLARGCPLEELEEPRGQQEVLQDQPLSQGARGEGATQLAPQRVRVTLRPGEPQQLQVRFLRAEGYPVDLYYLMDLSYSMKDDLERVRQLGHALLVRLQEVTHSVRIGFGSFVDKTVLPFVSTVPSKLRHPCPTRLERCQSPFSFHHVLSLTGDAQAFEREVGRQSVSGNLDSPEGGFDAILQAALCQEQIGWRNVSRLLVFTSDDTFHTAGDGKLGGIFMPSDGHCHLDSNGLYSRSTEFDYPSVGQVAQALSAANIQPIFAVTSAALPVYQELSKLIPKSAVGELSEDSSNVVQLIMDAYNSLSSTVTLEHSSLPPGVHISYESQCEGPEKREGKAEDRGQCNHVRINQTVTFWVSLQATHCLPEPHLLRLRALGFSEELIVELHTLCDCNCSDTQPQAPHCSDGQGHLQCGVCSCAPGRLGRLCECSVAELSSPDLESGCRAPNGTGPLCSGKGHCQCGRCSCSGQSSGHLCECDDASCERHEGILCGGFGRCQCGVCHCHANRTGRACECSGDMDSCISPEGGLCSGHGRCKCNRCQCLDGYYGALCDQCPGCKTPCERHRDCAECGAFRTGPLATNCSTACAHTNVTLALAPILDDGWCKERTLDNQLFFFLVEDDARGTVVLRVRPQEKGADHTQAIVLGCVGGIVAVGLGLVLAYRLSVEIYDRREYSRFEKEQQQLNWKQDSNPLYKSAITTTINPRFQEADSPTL
Nature of the test: α4β7-K562 Cell Adhesion Assay (α4β7 Mediated Adhesion/VCAM-1). In kind it is cell-based. How it is done: as §1, with “α4β7-K562” for “Ramos”, “(α4β7” for “α4β1”, “96” for “9.6”, “System).” for “Systems).”, “A stable cell line of K562 cells expressing human α4β7,” for “Ramos cells,”

T1 sequence (P05556 21-798, one chain of several): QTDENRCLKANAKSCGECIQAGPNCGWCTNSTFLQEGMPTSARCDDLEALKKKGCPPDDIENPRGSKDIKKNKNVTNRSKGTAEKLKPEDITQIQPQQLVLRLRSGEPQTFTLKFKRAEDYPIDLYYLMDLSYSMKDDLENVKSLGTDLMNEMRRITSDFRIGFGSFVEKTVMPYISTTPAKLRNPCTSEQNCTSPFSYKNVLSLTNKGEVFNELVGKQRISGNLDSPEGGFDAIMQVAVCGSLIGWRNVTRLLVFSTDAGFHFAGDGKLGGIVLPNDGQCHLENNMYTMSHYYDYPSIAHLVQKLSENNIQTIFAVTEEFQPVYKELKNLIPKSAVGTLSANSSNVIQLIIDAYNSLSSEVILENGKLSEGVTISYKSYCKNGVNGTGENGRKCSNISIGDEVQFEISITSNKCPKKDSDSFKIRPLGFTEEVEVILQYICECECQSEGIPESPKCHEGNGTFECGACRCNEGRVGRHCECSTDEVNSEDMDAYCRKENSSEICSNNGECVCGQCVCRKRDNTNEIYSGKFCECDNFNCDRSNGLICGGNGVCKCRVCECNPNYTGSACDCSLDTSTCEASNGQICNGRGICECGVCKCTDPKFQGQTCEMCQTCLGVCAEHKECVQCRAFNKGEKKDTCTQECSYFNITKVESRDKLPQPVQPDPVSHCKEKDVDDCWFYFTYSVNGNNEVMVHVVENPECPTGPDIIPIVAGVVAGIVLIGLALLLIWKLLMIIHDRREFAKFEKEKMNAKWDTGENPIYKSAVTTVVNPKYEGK

Take Phenylacetyl-Leu-Asp-Phe-D-Pro-NH2: in test [1], the “efficacy in heart allograft model” value is reported as “effective”. Further, in test [2], the IC50 is 2000 nM. Moreover, in test [3], the “efficacy in oxazolone-induced contact hypersensitivity” value is recorded as “efficacy similar to the α4 antibody PS/2”.

For the molecule `O=C(Nc1ccc(CC(NC(=O)C2C3CCC(CC3)N2C(=O)CCc2ccccc2)C(=O)O)cc1)c1c(Cl)cncc1Cl` (stereo not shown) [Cpd 39], the IC50 in test [4] (Ramos cells on recombinant hVCAM-1, read-out: α4β1 IC50) is 0.9 nM; in test [4] (repeated in leukocytosis table, unit inferred, read-out: α4β1), 0.9 nM; in test [6] (K562 cells expressing human α4β7 on recombinant hVCAM-1, read-out: α4β7 IC50), 7 nM; in test [6] (repeated in leukocytosis table, unit inferred, read-out: α4β7) it was 7 nM. The “Lymphocyte Counts % of Vehicle Control” value in test [5] (3 mg/kg sc) was 205.2 % of Vehicle Control; in test [5] (10 mg/kg sc), 150.3 % of Vehicle Control; in test [5] (30 mg/kg sc) it was 253.9 % of Vehicle Control. The figures for the “Total Leukocyte Counts % of Vehicle Control” value in test [5] (3 mg/kg sc), in test [5] (10 mg/kg sc) and in test [5] (30 mg/kg sc) were 175.1 % of Vehicle Control, 134.3 % of Vehicle Control and 212.2 % of Vehicle Control, respectively.
